This is an account of results in ChEMBL document CHEMBL1909046, “DrugMatrix in vitro pharmacology data”.

The target of assay [1] is Delta-type opioid receptor (Homo sapiens, UniProt P41143). Type of assay: cell membranes, HEK293, Membrane. The settings on record: hek293. Note: in other assays of this panel Not Active means under 50% inhibition at 10 µM.
A further assay addresses Acetylcholinesterase (Homo sapiens, UniProt P22303). Description: DRUGMATRIX: Acetylcholinesterase enzyme inhibition (substrate: acetylthiocholine). In kind it is cell-based, HEK293. The settings on record: hek293; Not Active = under 50% inhibition at 10 µM.
Assay [2] addresses 5-hydroxytryptamine receptor 6 (Homo sapiens, UniProt P50406). Type of assay: cell membranes, HeLa, Membrane.
The target in the next assay is Substance-P receptor (Homo sapiens, UniProt P25103). Type of assay: cell membranes, Membrane. Particulars: cho. Note: in other assays of this panel Not Active means under 50% inhibition at 10 µM.
A further assay concerns the target T1, Calcitonin receptor (Homo sapiens, UniProt P30988). Note: in other assays of this panel Not Active means under 50% inhibition at 10 µM.
T1 sequence (P30988 whole entry): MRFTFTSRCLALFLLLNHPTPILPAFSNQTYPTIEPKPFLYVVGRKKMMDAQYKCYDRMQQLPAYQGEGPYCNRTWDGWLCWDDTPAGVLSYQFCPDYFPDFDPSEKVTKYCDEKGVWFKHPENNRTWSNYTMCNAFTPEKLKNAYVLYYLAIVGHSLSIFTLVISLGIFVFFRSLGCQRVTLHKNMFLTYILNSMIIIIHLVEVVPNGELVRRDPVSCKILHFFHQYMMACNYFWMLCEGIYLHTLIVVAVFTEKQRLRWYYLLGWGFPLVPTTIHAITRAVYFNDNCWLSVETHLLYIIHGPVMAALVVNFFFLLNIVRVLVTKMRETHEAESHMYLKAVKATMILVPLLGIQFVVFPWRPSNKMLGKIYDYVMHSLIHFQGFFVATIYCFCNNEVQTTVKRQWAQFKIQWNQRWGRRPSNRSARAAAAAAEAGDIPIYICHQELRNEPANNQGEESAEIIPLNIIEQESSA
Type of assay: cell membranes, Membrane. The settings on record: t47d.

Assay [3] addresses Mitogen-activated protein kinase 3 (Homo sapiens, UniProt P27361). The experiment in a line: DRUGMATRIX: Protein Serine/Threonine Kinase, ERK1 enzyme inhibition (substrate: Myelin Basic Protein). Particulars: Not Active = under 50% inhibition at 10 µM. The arrangement: species or system Escherichia coli.
Assay [4] can be described thus: DRUGMATRIX: Sigma2 radioligand binding (ligand: [3H] Ifenprodil). Particulars: Not Active = under 50% inhibition at 10 µM. Type of assay: cell membranes, Rattus norvegicus, Wistar, Brain, Membrane.
Assay [5] concerns the target Prostaglandin G/H synthase 1 (Homo sapiens, UniProt P23219). The experiment in a line: biochemical. Type of assay: tissue-based, Platelet.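 Note: inhibition of COX-1 enzyme activity, with arachidonic acid supplied as substrate; in other assays of this panel Not Active means under 50% inhibition at 10 µM.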
The next assay has as its target T2, D(4) dopamine receptor (Homo sapiens, UniProt P21917).
T2 sequence (P21917 whole entry): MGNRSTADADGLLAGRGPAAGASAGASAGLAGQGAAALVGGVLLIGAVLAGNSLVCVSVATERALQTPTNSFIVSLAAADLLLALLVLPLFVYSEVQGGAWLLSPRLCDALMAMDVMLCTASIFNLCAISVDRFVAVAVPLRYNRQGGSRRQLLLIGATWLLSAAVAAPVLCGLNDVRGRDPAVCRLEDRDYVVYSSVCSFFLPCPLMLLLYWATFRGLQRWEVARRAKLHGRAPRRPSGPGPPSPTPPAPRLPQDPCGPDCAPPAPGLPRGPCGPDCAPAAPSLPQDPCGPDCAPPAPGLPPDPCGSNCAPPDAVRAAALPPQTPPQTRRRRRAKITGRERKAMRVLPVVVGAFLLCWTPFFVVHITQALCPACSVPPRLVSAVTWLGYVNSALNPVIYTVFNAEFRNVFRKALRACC
The experiment in a line: DRUGMATRIX: Dopamine D4.2 radioligand binding (ligand: [3H] Spiperone). Particulars: cho-k1; Not Active = under 50% inhibition at 10 µM. Type of assay: cell membranes, Membrane.

For assay [6], the target named is T3, Polyunsaturated fatty acid lipoxygenase ALOX15 (Oryctolagus cuniculus, UniProt P12530).
T3 sequence (P12530 whole entry): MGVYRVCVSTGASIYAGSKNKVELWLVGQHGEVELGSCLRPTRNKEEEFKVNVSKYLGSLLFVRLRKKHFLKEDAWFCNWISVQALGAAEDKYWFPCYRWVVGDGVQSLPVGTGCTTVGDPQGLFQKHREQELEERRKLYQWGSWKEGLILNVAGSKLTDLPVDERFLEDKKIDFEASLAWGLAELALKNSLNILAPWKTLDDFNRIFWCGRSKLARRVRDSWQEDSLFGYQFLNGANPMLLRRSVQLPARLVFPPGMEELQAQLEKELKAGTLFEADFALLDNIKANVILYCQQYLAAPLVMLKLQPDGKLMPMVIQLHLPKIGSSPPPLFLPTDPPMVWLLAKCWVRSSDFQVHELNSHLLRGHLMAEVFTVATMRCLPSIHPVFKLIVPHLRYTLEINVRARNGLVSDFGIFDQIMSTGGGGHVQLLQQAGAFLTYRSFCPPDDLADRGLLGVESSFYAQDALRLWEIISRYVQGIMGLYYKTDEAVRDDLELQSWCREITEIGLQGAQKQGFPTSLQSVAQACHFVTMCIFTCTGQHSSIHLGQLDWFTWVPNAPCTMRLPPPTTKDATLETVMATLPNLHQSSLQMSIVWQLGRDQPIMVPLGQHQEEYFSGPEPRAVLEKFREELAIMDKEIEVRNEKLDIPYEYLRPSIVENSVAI
Description: biochemical. In kind it is tissue-based, Reticulocytes. Particulars: reticulocytes.

Chain of Delta-type opioid receptor (P41143 whole entry): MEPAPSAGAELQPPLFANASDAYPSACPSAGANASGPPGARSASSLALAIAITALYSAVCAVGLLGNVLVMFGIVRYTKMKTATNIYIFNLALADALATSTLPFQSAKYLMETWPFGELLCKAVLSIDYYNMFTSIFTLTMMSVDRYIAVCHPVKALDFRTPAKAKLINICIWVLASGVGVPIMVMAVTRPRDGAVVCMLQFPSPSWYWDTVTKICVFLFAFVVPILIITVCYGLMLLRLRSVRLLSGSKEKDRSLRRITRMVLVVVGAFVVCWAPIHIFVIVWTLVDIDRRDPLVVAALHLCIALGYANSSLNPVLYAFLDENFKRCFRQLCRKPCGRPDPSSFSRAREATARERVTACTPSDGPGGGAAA
Chain of Mitogen-activated protein kinase 3 (P27361 whole entry): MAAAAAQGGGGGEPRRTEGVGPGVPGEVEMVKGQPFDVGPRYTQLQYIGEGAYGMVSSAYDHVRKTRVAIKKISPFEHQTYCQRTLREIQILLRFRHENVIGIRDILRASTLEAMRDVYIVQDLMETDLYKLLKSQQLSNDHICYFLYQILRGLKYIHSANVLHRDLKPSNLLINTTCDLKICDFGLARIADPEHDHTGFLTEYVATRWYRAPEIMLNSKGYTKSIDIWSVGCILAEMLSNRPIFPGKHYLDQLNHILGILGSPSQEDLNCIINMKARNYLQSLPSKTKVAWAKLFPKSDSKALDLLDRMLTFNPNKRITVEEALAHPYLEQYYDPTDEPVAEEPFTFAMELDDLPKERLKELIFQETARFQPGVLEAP
Chain of Prostaglandin G/H synthase 1 (P23219 whole entry): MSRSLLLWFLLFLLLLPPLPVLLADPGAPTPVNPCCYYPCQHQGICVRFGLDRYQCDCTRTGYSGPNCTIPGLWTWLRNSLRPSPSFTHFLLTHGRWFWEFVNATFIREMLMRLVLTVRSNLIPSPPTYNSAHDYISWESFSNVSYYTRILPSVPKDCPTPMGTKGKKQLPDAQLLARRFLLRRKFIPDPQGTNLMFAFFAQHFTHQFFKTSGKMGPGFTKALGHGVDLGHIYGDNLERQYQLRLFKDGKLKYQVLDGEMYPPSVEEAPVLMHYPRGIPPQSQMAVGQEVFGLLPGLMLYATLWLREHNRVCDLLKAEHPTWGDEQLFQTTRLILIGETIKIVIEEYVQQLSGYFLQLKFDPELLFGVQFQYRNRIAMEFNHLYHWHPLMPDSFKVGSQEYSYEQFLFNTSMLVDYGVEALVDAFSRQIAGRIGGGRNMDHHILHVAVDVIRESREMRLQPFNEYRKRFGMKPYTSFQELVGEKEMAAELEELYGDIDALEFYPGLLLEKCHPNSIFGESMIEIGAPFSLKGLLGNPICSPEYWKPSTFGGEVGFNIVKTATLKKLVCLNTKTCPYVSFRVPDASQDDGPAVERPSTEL
Chain of Substance-P receptor (P25103 whole entry): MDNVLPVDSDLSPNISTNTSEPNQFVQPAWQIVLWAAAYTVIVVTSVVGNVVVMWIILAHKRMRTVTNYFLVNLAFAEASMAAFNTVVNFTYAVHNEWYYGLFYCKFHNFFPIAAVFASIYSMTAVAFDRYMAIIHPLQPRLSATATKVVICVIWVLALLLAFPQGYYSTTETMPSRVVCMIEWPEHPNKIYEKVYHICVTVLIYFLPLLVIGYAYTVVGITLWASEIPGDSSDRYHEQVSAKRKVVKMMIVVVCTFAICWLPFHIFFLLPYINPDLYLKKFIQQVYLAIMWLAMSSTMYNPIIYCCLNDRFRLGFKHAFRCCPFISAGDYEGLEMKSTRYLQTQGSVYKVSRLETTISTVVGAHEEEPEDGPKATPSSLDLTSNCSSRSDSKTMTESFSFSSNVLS
Chain of Acetylcholinesterase (P22303 whole entry): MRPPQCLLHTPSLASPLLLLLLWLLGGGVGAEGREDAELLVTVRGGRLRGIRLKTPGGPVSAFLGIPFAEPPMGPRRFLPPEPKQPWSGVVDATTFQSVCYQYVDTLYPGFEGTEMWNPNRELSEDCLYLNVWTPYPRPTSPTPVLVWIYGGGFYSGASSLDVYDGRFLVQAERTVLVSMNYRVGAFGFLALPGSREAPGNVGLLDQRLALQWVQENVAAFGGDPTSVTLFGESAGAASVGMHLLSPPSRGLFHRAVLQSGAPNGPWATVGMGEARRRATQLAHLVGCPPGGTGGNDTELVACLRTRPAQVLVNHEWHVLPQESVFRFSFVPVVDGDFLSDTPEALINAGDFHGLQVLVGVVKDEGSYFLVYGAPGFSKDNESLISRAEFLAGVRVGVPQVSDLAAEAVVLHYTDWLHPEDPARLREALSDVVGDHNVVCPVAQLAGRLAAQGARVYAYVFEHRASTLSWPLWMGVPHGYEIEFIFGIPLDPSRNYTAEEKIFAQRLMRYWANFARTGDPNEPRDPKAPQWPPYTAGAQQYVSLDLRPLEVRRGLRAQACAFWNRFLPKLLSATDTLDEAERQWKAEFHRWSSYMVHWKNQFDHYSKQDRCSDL
Chain of 5-hydroxytryptamine receptor 6 (P50406 whole entry): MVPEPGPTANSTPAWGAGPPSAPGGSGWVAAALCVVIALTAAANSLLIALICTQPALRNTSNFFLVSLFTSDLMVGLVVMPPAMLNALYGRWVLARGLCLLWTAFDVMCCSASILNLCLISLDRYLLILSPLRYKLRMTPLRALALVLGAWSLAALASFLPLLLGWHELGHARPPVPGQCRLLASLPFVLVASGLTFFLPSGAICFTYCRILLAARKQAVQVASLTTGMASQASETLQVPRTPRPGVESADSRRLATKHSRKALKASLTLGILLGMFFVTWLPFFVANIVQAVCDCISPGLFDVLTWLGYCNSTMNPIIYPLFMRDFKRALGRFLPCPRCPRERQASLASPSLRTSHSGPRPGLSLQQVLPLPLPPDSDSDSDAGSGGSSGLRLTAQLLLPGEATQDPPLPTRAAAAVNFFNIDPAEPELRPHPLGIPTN

Consider `CNC(=C[N+](=O)[O-])NCCSCc1ccc(CN(C)C)o1` [RANITIDINE], for which the IC50 entry (in assay [1]; on Acetylcholinesterase; in assay [2] (hela); against Substance-P receptor; on Calcitonin receptor; in assay [3]) was “Not Active” each time. Also, the IC50 entry (in [4]; in [5] (platelet); at D(4) dopamine receptor; in [6]) was “Not Active” each time. In assay [4], the inhibition constant Ki result was “Not Active”.

`CO[C@H]1/C=C/O[C@@]2(C)Oc3c(C)c(O)c4c(c3C2=O)C2=NC3(CCN(CC(C)C)CC3)NC2=C(NC(=O)/C(C)=C\C=C\[C@H](C)[C@H](O)[C@@H](C)[C@@H](O)[C@@H](C)[C@H](OC(C)=O)[C@@H]1C)C4=O` [RIFABUTIN]: the half-maximal inhibitory concentration (IC50) entry (in [1]; on Acetylcholinesterase; in assay [2] (hela); at Substance-P receptor; on Calcitonin receptor; in assay [3]) was “Not Active” throughout. For the same molecule, the IC50 entry (in assay [4]; in assay [5] (platelet); on D(4) dopamine receptor; in assay [6]) was “Not Active” each time. In assay [4], the Ki entry is “Not Active”.

In the case of `CC(C)c1nc(CN(C)C(=O)N[C@H](C(=O)N[C@@H](Cc2ccccc2)C[C@H](O)[C@H](Cc2ccccc2)NC(=O)OCc2cncs2)C(C)C)cs1` [RITONAVIR], the IC50 result (in assay [1]; at Acetylcholinesterase; in [2] (hela); at Substance-P receptor; on Calcitonin receptor; in assay [3]) was “Not Active” throughout. In addition, the IC50 entry (in assay [4]; in assay [5] (platelet); at D(4) dopamine receptor; in assay [6]) was “Not Active” each time. In [4], the Ki result is “Not Active”.

Regarding `CC(C)CC(N(C)C)C1(c2ccc(Cl)cc2)CCC1` (centres undefined) [SIBUTRAMINE], the IC50 entry (in [1]; against Acetylcholinesterase; in assay [2] (hela); on Substance-P receptor; at Calcitonin receptor; in assay [3]) was “Not Active” throughout. Besides, the IC50 entry (in assay [4]; in [5] (platelet); on D(4) dopamine receptor; in assay [6]) was “Not Active” throughout. The Ki entry in assay [4] was “Not Active”.

Turning to `[H]/N=C(/N)N[C@H]1[C@H](O)[C@@H](O)[C@H](O[C@@H]2O[C@@H](C)[C@](O)(C=O)[C@H]2O[C@@H]2O[C@@H](CO)[C@H](O)[C@@H](O)[C@@H]2NC)[C@@H](N/C(N)=N\[H])[C@@H]1O` [STREPTOMYCIN], the IC50 result (in assay [1]; at Acetylcholinesterase; in [2] (hela); on Substance-P receptor; on Calcitonin receptor; in [3]) was “Not Active” throughout. The IC50 entry (in assay [4]; in [5] (platelet); on D(4) dopamine receptor; in [6]) was “Not Active” each time. The Ki result in [4] was “Not Active”.

As to `COc1cc(NS(=O)(=O)c2ccc(N)cc2)nc(OC)n1` [SULFADIMETHOXINE], the IC50 entry is “Not Active” in assay [1]; “Not Active” against Acetylcholinesterase; 1340 nM in assay [2] (read-out: IC50); “Not Active” against Substance-P receptor; “Not Active” at Calcitonin receptor; “Not Active” in [3]. The concentration for half-maximal inhibition (IC50) result (in [4]; in assay [5] (platelet); on D(4) dopamine receptor; in assay [6]) was “Not Active” in each case. Moreover, the Ki was 622 nM in assay [2] (read-out: Ki) and “Not Active” in assay [4].

For `Cc1cc(C)nc(NS(=O)(=O)c2ccc(N)cc2)n1` [SULFAMETHAZINE], the IC50 result (in [1]; at Acetylcholinesterase; in assay [2] (hela); at Substance-P receptor; at Calcitonin receptor; in [3]) was “Not Active” throughout. Moreover, the IC50 entry (in assay [4]; in assay [5] (platelet); at D(4) dopamine receptor; in [6]) was “Not Active” throughout. Moreover, the Ki result in assay [4] is “Not Active”.

With `C[C@]1(Cn2ccnn2)[C@H](C(=O)O)N2C(=O)C[C@H]2S1(=O)=O` [TAZOBACTAM], the concentration for half-maximal inhibition (IC50) result (in [1]; against Acetylcholinesterase; in assay [2] (hela); at Substance-P receptor; on Calcitonin receptor; in assay [3]) was “Not Active” in each case. In addition, the IC50 entry (in assay [4]; in assay [5] (platelet); on D(4) dopamine receptor; in [6]) was “Not Active” throughout. Further, in assay [4], the Ki result is recorded as “Not Active”.

In the case of `CN1C(C(=O)Nc2ccccn2)=C(O)c2sccc2S1(=O)=O` [TENOXICAM], the concentration for half-maximal inhibition (IC50) entry (in assay [1]; against Acetylcholinesterase; in assay [2] (hela); against Substance-P receptor; at Calcitonin receptor; in [3]) was “Not Active” throughout. The IC50 result in assay [4] was “Not Active”; in assay [5] (read-out: IC50) it was 1140 nM; at D(4) dopamine receptor, “Not Active”; in assay [6], “Not Active”. Moreover, the Ki entry in assay [4] was “Not Active”.

`O=C1CCC(N2C(=O)c3ccccc3C2=O)C(=O)N1` (centres undefined) [THALIDOMIDE]: the IC50 entry (in [1]; against Acetylcholinesterase; in [2] (hela); against Substance-P receptor; at Calcitonin receptor; in assay [3]) was “Not Active” each time. In addition, the IC50 entry (in assay [4]; in [5] (platelet); on D(4) dopamine receptor; in assay [6]) was “Not Active” each time. The Ki result in [4] is “Not Active”.

`Cc1cccc(Nc2ccncc2S(=O)(=O)NC(=O)NC(C)C)c1` [TORSEMIDE]: the IC50 result (in assay [1]; against Acetylcholinesterase; in assay [2] (hela); at Substance-P receptor; on Calcitonin receptor; in assay [3]) was “Not Active” throughout. Further, the IC50 result (in assay [4]; in assay [5] (platelet); at D(4) dopamine receptor; in assay [6]) was “Not Active” in each case. For the same molecule, the Ki result in [4] is listed as “Not Active”.

Regarding `CC(C)C[C@H](NC(=O)[C@@H](O)[C@H](N)Cc1ccccc1)C(=O)O` [UBENIMEX], the IC50 entry (in assay [1]; against Acetylcholinesterase; in assay [2] (hela); against Substance-P receptor; on Calcitonin receptor; in assay [3]) was “Not Active” throughout. Moreover, the IC50 entry (in assay [4]; in [5] (platelet); at D(4) dopamine receptor; in [6]) was “Not Active” in each case. Further, the inhibitory constant (Ki) result in assay [4] is recorded as “Not Active”.

As for `Cc1onc(-c2ccccc2)c1-c1ccc(S(N)(=O)=O)cc1` [VALDECOXIB], the IC50 entry (in assay [1]; against Acetylcholinesterase; in assay [2] (hela); against Substance-P receptor; at Calcitonin receptor; in assay [3]) was “Not Active” each time. Moreover, the IC50 result (in [4]; in [5] (platelet); on D(4) dopamine receptor; in assay [6]) was “Not Active” each time. In addition, the inhibition constant Ki result in assay [4] is “Not Active”.

As a reminder, the IC50 is the midpoint of a concentration-inhibition curve. For orientation: Ki means a measure of affinity in units of concentration, obtained from inhibition or displacement.
